Key:
[1] = tested on: DU4475; experiment: Cell viability following irradiation (CellTiter-Glo), DU4475; format: cell-based; details: DU4475 (Breast Cancer), viability at 6 days
Experimental: (§1) To evaluate the radiosensitizing effects of compounds of the invention in combination with ionizing radiation (IR), a broad panel of cell lines across multiple tumor types and genetic backgrounds were tested. Cells were incubated with DMSO or compound 578 for 30 minutes and then exposed to various doses of radiation (0, 0.5, 1, 2, 4, 6, 8, and 16 Gy). Cell viability was assessed at 6 days using CellTiter-Glo® (Promega, Inc).

[2] = tested on: Colo-205; experiment: Cell viability following irradiation (CellTiter-Glo), Colo-205; format: cell-based; details: Colo-205 (Colorectal Cancer), viability at 6 days
Experimental: as §1

[3] = tested on: DLD-1; experiment: Cell viability following irradiation (CellTiter-Glo), DLD-1; format: cell-based; details: DLD-1 (Colorectal Cancer), viability at 6 days
Experimental: as §1

[4] = tested on: HCT116; experiment: Cell viability following irradiation (CellTiter-Glo), HCT116; format: cell-based; details: HCT116 (Colorectal Cancer), viability at 6 days
Experimental: as §1

[5] = tested on: OE19; experiment: Cell viability following irradiation (CellTiter-Glo), OE19; format: cell-based; details: OE19 (Gastric-Esophageal Cancer), viability at 6 days
Experimental: as §1

[6] = tested on: HT1080; experiment: Cell viability following irradiation (CellTiter-Glo), HT1080; format: cell-based; details: HT1080 (Fibrosarcoma), viability at 6 days
Experimental: as §1

[7] = tested on: A172; experiment: Cell viability following irradiation (CellTiter-Glo), A172; format: cell-based; details: A172 (Glioblastoma), viability at 6 days
Experimental: as §1

[8] = tested on: DBTRG-05MG; experiment: Cell viability following irradiation (CellTiter-Glo), DBTRG-05MG; format: cell-based; details: DBTRG-05MG (Glioblastoma), viability at 6 days
Experimental: as §1

[9] = tested on: SMCC7721; experiment: Cell viability following irradiation (CellTiter-Glo), SMCC7721; format: cell-based; details: SMCC7721 (Hepatocellular Carcinoma), viability at 6 days
Experimental: as §1

[10] = tested on: SNU449; experiment: Cell viability following irradiation (CellTiter-Glo), SNU449; format: cell-based; details: SNU449 (Hepatocellular Carcinoma), viability at 6 days
Experimental: as §1

[11] = tested on: FaDu; experiment: Cell viability following irradiation (CellTiter-Glo), FaDu; format: cell-based; details: FaDu (Head and Neck Squamous Cell Carcinoma), viability at 6 days
Experimental: as §1

[12] = tested on: A549; experiment: Cell viability following irradiation (CellTiter-Glo), A549; format: cell-based; details: A549 (Lung Cancer), viability at 6 days
Experimental: as §1

[13] = tested on: H1299; experiment: Cell viability following irradiation (CellTiter-Glo), H1299; format: cell-based; details: H1299 (Lung Cancer), viability at 6 days
Experimental: as §1

[14] = tested on: H2009; experiment: Cell viability following irradiation (CellTiter-Glo), H2009; format: cell-based; details: H2009 (Lung Cancer), viability at 6 days
Experimental: as §1

[15] = tested on: H460; experiment: Cell viability following irradiation (CellTiter-Glo), H460; format: cell-based; details: H460 (Lung Cancer), viability at 6 days
Experimental: as §1

[16] = tested on: H838; experiment: Cell viability following irradiation (CellTiter-Glo), H838; format: cell-based; details: H838 (Lung Cancer), viability at 6 days
Experimental: as §1

[17] = tested on: SW900; experiment: Cell viability following irradiation (CellTiter-Glo), SW900; format: cell-based; details: SW900 (Lung Cancer), viability at 6 days
Experimental: as §1

[18] = tested on: PATU8889T; experiment: Cell viability following irradiation (CellTiter-Glo), PATU8889T; format: cell-based; details: PATU8889T (Pancreatic cancer), viability at 6 days
Experimental: as §1

[19] = tested on: DNA-PK null SCID mouse cell line; experiment: Cell viability following irradiation (CellTiter-Glo), SCID; format: cell-based; details: for EC50 IR: SCID (SCID Tumor, DNA-PK null), viability at 6 days
Experimental: as §1

[20] = tested on: glioblastoma cell lines; experiment: Cell viability following irradiation, glioblastoma cell lines; format: cell-based; details: generally less sensitive to radiation alone
Experimental: as §1

[21] = tested on: human fibroblast cell lines (HFL1, IMR90 and MRC5), ARPE19, NHBE, SAEC; experiment: Cell viability following irradiation, normal cell lines; format: cell-based; details: exception: HS68
Experimental: as §1

[22] = tested on: OD26749 NSCLC subcutaneous xenograft; experiment: In vivo efficacy, primary OD26749 NSCLC subcutaneous xenograft model with whole body IR; set-up: species or system Nude mice; details: Days 19 and 26, Day 30 post implantation
Experimental: The efficacy of compound 578 in vivo was evaluated in the primary OD26749 NSCLC subcutaneous xenograft model. This primary NSCLC tumor was obtained from a patient with a poorly differentiated adenocarcinoma and was serially passaged in SCID mice prior to this study. Nude mice were surgically implanted with 150-mg fragments of OD26749 tumor at passage 3 (P3). Whole body ionizing radiation (IR, 2 Gy/treatment) was administered using a dual Cesium 137 source and initiated when tumors reached approximately 350 mm^3. Tumor volumes were measured twice a week during the course of the study. Anti-tumor efficacy is expressed as % T/C (tumor/control) while regression is expressed as % T/Ti, the reduction in tumor volume compared to the starting tumor volume.
Compound 578 [in 16% Captisol®+HPMC/PVP] was administered orally (b.i.d. at 0 and 4 hours) at 25, 50, 100 mg/kg and (q.d.) 200 mg/kg on Day 19 post implantation. A single 2-Gy dose of whole body IR was given 15 minutes after compound administration. Control animals were given vehicle orally b.i.d. (0 and 4 hours). On Day 26 post implantation, the same regimens were repeated.

EC50 IR ([2]; compound 578 0.7 μM + IR): 0.7 Gy
EC50 IR ([2]; compound 578 2.1 μM + IR): 0.7 Gy
EC50 IR ([3]; compound 578 0.7 μM + IR): 0.6 Gy
EC50 IR ([3]; compound 578 2.1 μM + IR): 0.7 Gy
EC50 IR ([4]; compound 578 0.7 μM + IR): 0.5 Gy
EC50 IR ([4]; compound 578 2.1 μM + IR): <0.5 Gy
EC50 IR ([6]; compound 578 0.7 μM + IR): 1.9 Gy
EC50 IR ([6]; compound 578 2.1 μM + IR): 0.9 Gy
EC50 IR ([10]; compound 578 0.7 μM + IR): 3.3 Gy
EC50 IR ([10]; compound 578 2.1 μM + IR): 1.8 Gy
EC50 IR ([12]; compound 578 0.7 μM + IR): 0.5 Gy
EC50 IR ([12]; compound 578 2.1 μM + IR): <0.5 Gy
EC50 IR ([13]; compound 578 0.7 μM + IR): 1.1 Gy
EC50 IR ([13]; compound 578 2.1 μM + IR): 1.5 Gy
EC50 IR ([14]; compound 578 0.7 μM + IR): 2.7 Gy
EC50 IR ([14]; compound 578 2.1 μM + IR): 1.5 Gy
EC50 IR ([15]; compound 578 0.7 μM + IR): 0.9 Gy
EC50 IR ([15]; compound 578 2.1 μM + IR): 0.7 Gy
EC50 IR ([16]; compound 578 0.7 μM + IR): 0.6 Gy
EC50 IR ([16]; compound 578 2.1 μM + IR): <0.5 Gy
EC50 IR ([17]; compound 578 0.7 μM + IR): 4.2 Gy
EC50 IR ([17]; compound 578 2.1 μM + IR): 4.3 Gy
SMILES: CNC(=O)c1ccnc2c([C@H](C)CNc3cc(-c4cnc(C)nc4)ncn3)cccc12 [Compound 578, (S)—N-methyl-8-(1-((2′-methyl-[4,5′-bipyrimidin]-6-yl)amino)propan-2-yl)quinoline-4-carboxamide]
EC50 IR ([1]; compound 578 0.7 μM + IR): <0.5 Gy
EC50 IR ([1]; compound 578 2.1 μM + IR): <0.5 Gy
EC50 IR ([5]; compound 578 0.7 μM + IR): 0.5 Gy
EC50 IR ([5]; compound 578 2.1 μM + IR): <0.5 Gy
EC50 IR ([7]; compound 578 0.7 μM + IR): 1.7 Gy
EC50 IR ([7]; compound 578 2.1 μM + IR): 0.9 Gy
EC50 IR ([8]; compound 578 0.7 μM + IR): 4.2 Gy
EC50 IR ([8]; compound 578 2.1 μM + IR): 5 Gy
EC50 IR ([9]; compound 578 0.7 μM + IR): 1.7 Gy
EC50 IR ([9]; compound 578 2.1 μM + IR): 0.6 Gy
EC50 IR ([11]; compound 578 0.7 μM + IR): 2 Gy
EC50 IR ([11]; compound 578 2.1 μM + IR): 1.9 Gy
EC50 IR ([18]; compound 578 0.7 μM + IR): 1.1 Gy
EC50 IR ([18]; compound 578 2.1 μM + IR): 0.9 Gy
EC50 IR ([19]; compound 578 0.7 μM + IR): 2.8 Gy
EC50 IR ([19]; compound 578 2.1 μM + IR): 3.1 Gy
effect on cell viability ([19]; as a single agent or in combination with radiation, DNA-PK null SCID mouse cell line): minimal effect on cell viability
radiosensitization [20]: less radiosensitization
radiosensitization [21]: only marginal radiosensitization
% T/C (tumor growth inhibition) ([22]; 25 mg/kg b.i.d. oral + 2 Gy whole body IR): 25.6%
% T/C (tumor growth inhibition) ([22]; 50 mg/kg b.i.d. oral + 2 Gy whole body IR): 11.7%
% T/Ti (regression) ([22]; 100 mg/kg b.i.d. oral + 2 Gy whole body IR, P<0.001 compared to IR alone): −3.1%
% T/C (tumor growth inhibition) ([22]; 200 mg/kg q.d. oral + 2 Gy whole body IR): 6.5%

Source: patent US10442791B2, “DNA-PK inhibitors” (Vertex Pharmaceuticals Incorporated, priority 2012, dated 2019)
